Assay results: patent publication US20220064238A1, “Methods And Compositions For Modifying Transcription Factor Activity by Targeting The Human Mediator Complex Using Cell Penetrating Memetic Peptides And Methods of Treating Cancer Using The Same” (The Regents of the University of Colorado, a body corporate, priority 2020, published 2022)
Bridge positions count the residues as written; N and C are the ends. Square brackets hold non-standard residues; d marks the D form. Peptide text beside a SMILES is read from it. PEG6 = NCCOCCOCCOCCOCCOCCOCCC(=O)O; R8 = C=CCCCCCC[C@@](C)(N)C(=O)O; S5 = C=CCCC[C@](C)(N)C(=O)O

Tested on: Gal4-VP16 / Mediator
Experiment: In vitro transcription on chromatin templates activated by Gal4-VP16
Format: biochemical, human
Details: read-out: IC50, transcription in the presence of Gal4-VP16
Description: Finally, we assessed whether the bivalent peptide would selectively block p53-dependent transcription compared with VP16, a viral activation domain. Whereas p53 and VP16 both interact with Mediator, they do so through different subunits (MED17 and MED25, respectively).
In vitro transcription: Chromatinized templates and in vitro transcription assays were generated and completed as described (Knuesel et al., 2009). Briefly, each activator (GAL4-p53AD or GAL4-VP16AD) was titrated to yield maximum transcription. While the activator bound the template, the general transcription factors (GTFs) were mixed in 0.1 M HEMG (10 mM HEPES pH 7.6, 100 mM KCl, 0.1 mM EDTA, 10% glycerol, 5.5 mM MgCl2) to give approximate final concentrations of 40 nM TFIIA, 10 nM IIB, 0.8 nM TFIID, 10 nM TFIIE, 10 nM TFIIF, 0.5 nM TFIIH and 2 nM pol II. A non-limiting amount of Mediator was then diluted in a separate salts mix (10 mM HEPES pH 7.6, 100 mM KCl, 2.5% PVA, 2.5% PEG, 7.5 mM MgCl2), along with 400 U of RNAseOUT, about 300 ng PC4 and about 300 ng HMGB1. On ice, the desired concentration of peptide was then added to the Mediator mix, followed by the GTF mix at a 5:11 ratio. The GTFs, Mediator and peptide were then incubated at least 5 minutes at 30° C. […]

SMILES: CC[C@H](C)[C@H](NC(=O)[C@H](CC(=O)O)NC(=O)[C@H](CC(=O)O)NC(=O)[C@@H]1CCCN1C(=O)[C@H](CO)NC(=O)[C@H](CC(C)C)NC(=O)CCOCCOCCOCCOCCOCCOCCNC(=O)[C@H](CCCNC(=N)N)NC(=O)[C@H](CCCNC(=N)N)NC(=O)[C@]1(C)CCCC=CCCCCCC[C@@](C)(NC(=O)[C@H](Cc2ccccc2)NC(=O)[C@H](CCCNC(=N)N)NC(=O)[C@H](CCC(=O)O)NC(=O)[C@H](CCC(N)=O)NC(=O)[C@H](CO)NC(=O)[C@H](CCCNC(=N)N)NC(C)=O)C(=O)N[C@@H](CC(=O)O)C(=O)N[C@@H](CC(C)C)C(=O)N[C@@H](Cc2c[nH]c3ccccc23)C(=O)N[C@@H](CCCCN)C(=O)N[C@@H](CCCNC(=N)N)C(=O)N[C@@H](CC(C)C)C(=O)N1)C(=O)N[C@@H](CCC(=O)O)C(=O)N[C@@H](CCC(N)=O)C(=O)N[C@@H](Cc1c[nH]c2ccccc12)C(=O)N[C@@H](Cc1ccccc1)C(=O)N[C@H](C(=O)N[C@@H](CCC(=O)O)C(=O)N[C@@H](CC(=O)O)C(N)=O)[C@@H](C)O [bivalent peptide] (Ac-RSQERF[R8]DLWKRL[S5]RR[PEG6]LSPDDIEQWFTED-NH2; staple 7-14; N-terminus assumed)
- IC50: 424 nM
